Results: patent US11767316B2, “Non-fused thiophene derivatives and their uses” (ENYO PHARMA, priority 2018, dated 2023)
Like-named read-outs stand apart in the source and are kept apart here.

How the values were obtained:
NFκB = NFκB reporter assay (NanoLuciferase) in A549 cells, TNFα stimulation; format: cell-based; conditions: Homo sapiens, 4 ng/ml TNFα, 6 hours
Text: Compounds of the present invention have been tested for their capacity to inhibit NFκB.
The NFκB reporter construct was made by cloning 5 NFκB responsive elements upstream of a NanoLuciferase reporter gene flanked by AAVS1 genomic sequences.
NFκB Responsive element fused with NanoLuciferase and SV40 late Poly(A) signal was amplified from pNL3.2-NFκB-Nluc (Promega) using NFKB-NLUC-F and NFKB-NLUC-R primers and inserted by Infusion (TaKaRa) in AAVS1 SA-2A-puro-pA donor plasmid (Hockemeyer et al, Nat Biotechnol. 2009, 27, 851-7) digested by Sal1. pCRISPR AAVS1-T2 expressing a guide RNA (gRNA) to target human AAVS1 (T2 target sequence) was constructed by inserting AAVS1-T2A hybridized primers in pLentiCRISPR v2-blast (Sanjana et al, Nat Methods. 2014, 11, 783-4) digested by Bsmb1.
A549 cells were transfected by the plasmids and puromycine selected for 5 days (1 μg mL-1). Then clones were obtained by limiting dilution and selected to maximize TNFα dependent NFkB-NanoLuciferase induction.
The reporter cells were seeded on a 96-well plate for overnight with DMEM including 10% FBS. Test compounds were added at varying concentrations. The cells then were treated with 4 ng/ml TNFα (Peprotech, ref E251) in DMEM+10% FBS. NanoGlo luciferase assay (Promega) was carried out 6 hours later. Luminescence was measured using a Spark 20M spectrofluorimeter (Tecan). Values were normalized to the luminescence measured in untreated cells.

[1] = tested on: H1N1 (influenza A/New Caledonia/20/99); experiment: Antiviral effect on A549 cells infected with H1N1 (MUNANA neuraminidase readout); format: cell-based; conditions: H1N1 A/New Caledonia/20/99 at MOI 0.1, 48 h post-infection, MUNANA fluorescence, read-out: IC50
Experimental: The antiviral effect of the compounds of the invention have been tested on A549 cell lines infected with H1N1 (influenza A/New Caledonia/20/99).
Human A549 cells (80,000 cells/well in a 96 well plate) were treated with a range of concentration of test compounds and immediately infected by H1N1 A/New Caledonia/20/99 virus (clinical isolate) at MOI of 0.1 in DMEM/1% Penicillin/streptomycin supplemented with 0.25 μg/ml TPCK trypsin (Sigma) and incubated at 37° C. in 5% CO2. 48 h post-infection, supernatants (25 μl) were collected and transferred into a 96-well black flat-bottom plate, mixed with 25 μl PBS with Ca++/Mg++(Thermo Fisher) and 50 μl of 2′-(4-Methylumbelliferyl)-α-D-N-acetylneuraminic acid sodium salt hydrate stock-solution (20 μM, MUNANA, Sigma). Plates were incubated 1 h at 37° C. and reaction is stopped by adding 100 μl of Stop Solution (glycine 0.1 M pH10.7/25% ethanol). The amount of fluorescent product released by MUNANA hydrolysis (4-MU) was measured in a Tecan spectrophotometer with excitation and emission wavelengths of 365 and 450 nm respectively.

[2] = Influenza A virus, H1N1, A549, 48 h

O=C(Nc1scc(C2CCc3ccccc3C2)c1C(=O)O)c1ccc(F)cc1 (centres unmarked) [#151]
EC50 (NFκB): 90 nM | IC50 [1]: 2 nM

CC(C)Oc1ccc(C(=O)Nc2scc(C3CCc4ccccc4C3)c2C(=O)O)cc1 (centres unmarked) [#180]
EC50 (NFκB): 50 nM | IC50 [1, 2]: 0.3 nM

CN1CCOc2cc(C(=O)Nc3scc(C4CCc5ccccc5C4)c3C(=O)O)ccc21 (centres unmarked) [#86]
EC50 (NFκB): 40 nM | IC50 [1, 2]: 2 nM

O=C(Nc1scc(C2CCc3ccccc3C2)c1C(=O)O)c1ccc(OC(F)F)cc1 (centres unmarked) [#152]
EC50 (NFκB): 160 nM | IC50 [1]: 2 nM

O=C(Nc1scc(C2CCc3ccccc32)c1C(=O)O)c1ccccc1 (centres unmarked) [#19]
EC50 (NFκB): 200 nM | IC50 [1, 2]: 67 nM

COCCNc1cccc(C(=O)Nc2scc(C3CCc4ccccc4C3)c2C(=O)O)c1 (centres unmarked) [#94]
EC50 (NFκB): 90 nM | IC50 [1, 2]: 2 nM

O=C(Nc1scc(C2CCCc3ccccc32)c1C(=O)O)c1ccccc1 (centres unmarked) [#124]
EC50 (NFκB): 910 nM | IC50 [1, 2]: 237 nM

COc1ccc(C(=O)Nc2scc(C3CCc4ccccc4C3)c2C(=O)O)cc1F (centres unmarked) [#162]
EC50 (NFκB): 200 nM | IC50 [1, 2]: 4 nM

O=C(Nc1scc(C2CCc3ccccc3C2)c1C(=O)O)c1ccc(N2C[C@@H]3C[C@H]2CO3)cc1 (some centres unmarked) [#140]
EC50 (NFκB): 40 nM | IC50 [1, 2]: 3.5 nM

COCCCNc1ccc(C(=O)Nc2scc(C3CCc4ccccc43)c2C(=O)O)cc1 (centres unmarked) [#57]
EC50 (NFκB): 80 nM | IC50 [1, 2]: 76 nM

O=C(Nc1scc(C2CCc3ccccc3C2)c1C(=O)O)c1ccc(F)cc1 (centres unmarked) [#171]
IC50 [1]: 6 nM

O=C(Nc1scc(C2CCc3ccccc3C2)c1C(=O)O)c1ccc(N2C3COCC2C3)cc1 (centres unmarked) [#150]
IC50 [1, 2]: 1 nM

C[C@H]1COCCN1c1ccc(C(=O)Nc2scc(C3CCc4ccccc4C3)c2C(=O)O)cc1 (some centres unmarked) [#146]
IC50 [1, 2]: 0.5 nM

O=C(Nc1scc(-c2ccc3c(c2)CCCC3)c1C(=O)O)c1ccccc1 [#123]
IC50 [1, 2]: 133 nM

O=C(Nc1sc(Cl)c(C2CCc3ccccc3C2)c1C(=O)O)c1ccccc1 (centres unmarked) [#17]
EC50 (NFκB): 180 nM | IC50 [1, 2]: 38.3 nM
